According to paper PMC8251916 (Chemistry (Weinheim an Der Bergstrasse, Germany), 2021):

Assays:
[1] = tested on: L. major; experiment: Leishmaniacidal activity, MTT assay; type: cell-based; settings: Leishmania major; 72 h incubation, MTT absorbance; read-out: absolute EC50 L. major
Method: (§1) Doxorubicin, suramin and miltefosine were used as control compounds.[ ^6b , ^9 ] After incubation with varied concentrations of the compounds for 72 h, cell viability was measured using either an alamarBlue™ assay (for MRC5, HeLa and T. brucei) or MTT assay (for L. major). Absolute EC50 values and selectivity indexes were then calculated from dose‐response curves (Table 2 and S14).
Invitrogen). L. major promastigotes (MHOM/IL/80/Friedlin) were cultured at 28 °C, 5 % CO2 in modified RPMI-1640 medium (Thermo Fisher Scientific, Waltham, MA, USA) with 10% hiFBS. Parasites were split every other day and maintained in their experimental growth phase (below 2 million parasites per mL). […]
The results are expressed as the concentration of compound that reduces cell growth by 50 % versus untreated control cells (EC50) using GraphPad Prism 7 (GraphPad Software) to fit the data to a sigmoidal curve. Data are presented as the average of three independent measurements all conducted in triplicate conditions. […]
The leishmaniacidal activity of the compounds on promastigotes L. major (MHOM/IL/80/Friedlin) was carried out as previously described.[S14] Briefly, 4 × 10^6 / mL promastigotes were incubated for 72 h at 28 °C in 96-well plates (50 µL/well) in the presence of increasing concentration of compounds. Cell proliferation was determined using an MTT-based assay (Sigma-Aldrich). Thus, after the 72 h incubation, 10 µL of MTT (5 mg/ml) were added to each well and parasites were reincubated for 4 hrs at 28 °C. Then, 50 µL of 20 % SDS were added to each well. The plate was then incubated at 37°C for 4-16 hrs and analysed using an Infinite F200 plate reader (TECAN Austria, GmbH). The absorbance was measured […]
at a wavelength of 540 nm and the EC50 was calculated as described above. Data are presented as the average of three independent measurements, all conducted in triplicate conditions. […]

[2] = tested on: F21T-Na+ (human telomeric G-quadruplex, antiparallel); experiment: FRET melting assay, human telomeric G4 in sodium buffer; type: binding; settings: 200 nM DNA, PIPER and 3 not reliable (spectral overlap)
Method: (§2) With the library in hand, we began our investigation into G4 stabilization by conducting a Förster resonance energy transfer (FRET) melting assay to assess DNA stabilization using the procedure outlined by De Cian et. al. ^[13] […] The sequences examined (at 200 nM) were the human telomeric G4 in potassium buffer (F21T‐K^+, mixed parallel/hybrid G4) ^[14] and sodium buffer (F21T‐Na^+, antiparallel G4), ^[15] the c‐Myc promoter G‐quadruplex (FmycT‐K^+, parallel G4), ^[16] a polymorphic G4 found in T. brucei (FEBR1T‐K^+, a mixed G4 topology), ^[6b] and a hairpin duplex DNA sequence (F10T‐K^+). Together, these sequences represent targets for therapeutic intervention to treat parasitic infections, ^[6b] or cancer. ^[1b] The topology of each sequence was confirmed independently via circular dichroism (CD, Figure S1). […]
(§3) FRET melting assays were performed to assess ligand affinity for duplex and G-quadruplex
(§4) DNA. Briefly, oligonucleotides of interest were obtained labelled at the 5’ and 3’ ends with FAM (a fluorescence donor) and TAMRA (a fluorescence quencher), respectively. In the folded state, proximity of the donor and quencher result in no observed fluorescence from FAM, since energy is transferred non-radiatively to TAMRA by FRET. As the temperature is raised and the secondary structure denatures, the fluorophores move further apart and the fluorescence signal increases. From the resulting curve, the characteristic melting temperature (Tmax, also referred to as Tm) is defined as the temperature which corresponds to the maxima of the first derivative of the normalised fluorescence signal. The change in melting temperature (ΔTm) induced by the presence of a small molecule ligand provides an indication of the ligand’s ability to stabilise the DNA structure. FRET experiments were performed according to the […]
(§5) procedure reported by De Cian and co-workers[S3] on a Stratagene MX3005P. The method consisted of holding at 25 °C for 5 min, before heating at 1 °C/min to 96 °C in 1 °C increments, […]

[3] = tested on: F10T-K+ (hairpin duplex DNA); experiment: FRET melting assay, hairpin duplex DNA; type: binding; settings: 200 nM DNA, PIPER and 3 not reliable (spectral overlap)
Method: as §2, §3, §4, §5

[4] = tested on: FmycT-K+ (c-Myc promoter G-quadruplex, parallel); experiment: FRET melting assay, c-Myc promoter G4; type: binding; settings: 200 nM DNA, PIPER and 3 not reliable (spectral overlap)
Method: as §2, §3, §4, §5

[5] = tested on: HeLa cervical carcinoma cells; experiment: Cytotoxicity, alamarBlue assay, HeLa; type: cell-based, human; settings: Homo sapiens, HeLa; 72 h incubation, alamarBlue fluorescence; read-out: absolute EC50 HeLa
Method: as §1, with “S14). […]” for “S14).”
(§6) Cell culture reagents were purchased from Thermo Fisher Scientific (Waltham, MA, USA) and used as-is. The Dulbecco’s Minimal Essential Medium (DMEM) formulation contained either high glucose (4.5 g/L, catalogue number: 10569) or low glucose (1 g/L, catalogue number:
(§7) 10567). RPMI-1640 was provided without sodium pyruvate and with L-glutamine (catalogue number: 11875). Phosphate Buffered Saline (PBS) contained NaCl (9 g/L), KH2PO4 (144 mg/L) and Na2HPO4-7.H2O (795 mg/L, catalogue number: 10010049). TrypLE Express™ was provided with EDTA (458 mg/L) and without Phenol Red (catalogue number: 12604021).
MRC-5 cells (human lung fibroblasts) were grown in monolayer (37 °C, 5 % CO2 and 100 % humidity) in DMEM medium (1 g/L glucose), supplemented with 10% heat-inactivated Fetal Bovine Serum (hiFBS), 2 mM L-glutamine, 100 U / mL penicillin and […] streptomycin. HeLa (Human cervical carcinoma cell line) cells were maintained at 37 °C and 5 % CO2 in high glucose DMEM (4.5 g / L) supplemented with 10% hiFBS, 100 U / ml penicillin, […] streptomycin, 2 mM L-glutamine and non-essential aminoacids (1X).
(§8) Cells were cultured according to ATCC recommendations and were used for the experiments while in the exponential growth phase. […]
(§9) Cytotoxicity was measured through the alamarBlue® assay (Thermo Fisher Scientific).[S6,S13] Briefly, 5×10^3 MRC-5 or HeLa cells were seeded in 96-wells plates (100 µL / well) in the presence of increasing concentrations of compound. After 72 hrs of incubation at 37 °C, 20 µL of alamarBlue® solution (110 ng / ml) was added to each well and cells were reincubated for 4 hrs at 37 °C. Then, 50 µL of 3 % SDS were added to each well. The plate was incubated at 37 °C for an extra hour and then analysed by fluorescence with an Infinite F200 plate reader (TECAN Austria, GmbH). The excitation wavelength was fixed at 550 nm and the emission wavelength at 590 nm. The results are expressed as the concentration of compound that reduces

[6] = tested on: F21T-K+ (human telomeric G-quadruplex, mixed parallel/hybrid); experiment: FRET melting assay, human telomeric G4 in potassium buffer; type: binding; settings: 200 nM DNA, PIPER and 3 not reliable (spectral overlap)
Method: as §2, §3, §4, §5

[7] = tested on: MRC5 non-tumoral cells; experiment: Cytotoxicity, alamarBlue assay, MRC5; type: cell-based, human; settings: Homo sapiens, MRC5, 72 h, 72 h incubation, alamarBlue fluorescence; read-out: absolute EC50 MRC5
Method: as §1, with “S14). […]” for “S14).”
as §6, §7
(§10) MRC-5 cells (human lung fibroblasts) were grown in monolayer (37 °C, 5 % CO2 and 100 % humidity) in DMEM medium (1 g/L glucose), supplemented with 10% heat-inactivated Fetal Bovine Serum (hiFBS), 2 mM L-glutamine, 100 U / mL penicillin and […]
(§11) streptomycin. […]
as §8, §9

[8] = tested on: T. brucei; experiment: Trypanocidal activity, alamarBlue assay; type: cell-based; settings: Trypanosoma brucei; 72 h incubation, alamarBlue fluorescence; read-out: absolute EC50 T. brucei
Method: as §1, with “S14). […]” for “S14).”
as §6, §7, §10, §11, §8
hiFBS. Parasites were split every other day and maintained in their experimental growth phase (below 2 million parasites per mL).
as §9

[9] = tested on: Febr1T-K+ (T. brucei G-quadruplex); experiment: FRET melting assay, T. brucei G4; type: binding; settings: 200 nM DNA, PIPER and 3 not reliable (spectral overlap)
Method: as §2, §3, §4, §5

[10] = 5 μM ligand, 10 mM KCl, 90 mM LiCl, 10 mM Li cacodylate

Compound	EC50 [1]	ΔTm F21T-Na+ ([2]; 10 µM ligand)	ΔTm F10T-K+ ([3]; 10 µM ligand)	ΔTm FmycT-K+ ([4]; 10 µM ligand)	EC50 [5]	ΔTm F21T-K+ ([6]; 10 µM ligand)	EC50 [7]	EC50 [8]	ΔTm Febr1T-K+ ([9]; 10 µM ligand)	ΔTm F21T-Na+ ([2]; 1 µM ligand)	ΔTm F10T-K+ ([3]; 1 µM ligand)	ΔTm FmycT-K+ ([4]; 1 µM ligand)	ΔTm F21T-K+ ([6]; 1 µM ligand)	ΔTm Febr1T-K+ ([9]; 1 µM ligand)	ΔTm F21T-Na+ ([2]; 5 μM ligand, 100 mM NaCl, 10 mM Li cacodylate)	ΔTm F10T-K+ [3, 10]	ΔTm FmycT-K+ ([4]; 5 μM ligand, 1 mM KCl, 99 mM LiCl, 10 mM Li cacodylate)	ΔTm F21T-K+ [6, 10]	ΔTm Febr1T-K+ [9, 10]
CN1CCN(CCCN2C(=O)c3ccc(Oc4ccc5c(c4)C(=O)N(CCCN4CCN(C)CC4)C5=O)cc3C2=O)CC1 [Compound 5]	> 100 µM	-3 ± 1 °C	0 ± 1 °C	-3 ± 1 °C	> 100 µM	-3 ± 1 °C	> 100 µM	67 ± 18 µM	1 ± 1 °C	–	–	–	–	–	–	–	–	–	–
CN1CCN(CCCN2C(=O)c3ccc(C(c4ccc5c(c4)C(=O)N(CCCN4CCN(C)CC4)C5=O)(C(F)(F)F)C(F)(F)F)cc3C2=O)CC1 [Compound 6]	> 100 µM	-8 ± 1 °C	0 ± 1 °C	-4 ± 1 °C	> 100 µM	-2 ± 1 °C	> 100 µM	36 ± 2 µM	2 ± 1 °C	–	–	–	–	–	–	–	–	–	–
CN1CCN(CCCN2C(=O)c3ccc(C(=O)c4ccc5c(c4)C(=O)N(CCCN4CCN(C)CC4)C5=O)cc3C2=O)CC1 [Compound 7]	> 100 µM	-3 ± 2 °C	0 ± 1 °C	-3 ± 1 °C	> 100 µM	-3 ± 1 °C	> 100 µM	70 ± 13 µM	1 ± 1 °C	–	–	–	–	–	–	–	–	–	–
CN1CCN(CCCn2c(=O)c3cc4c(=O)n(CCCN5CCN(C)CC5)c(=O)c4cc3c2=O)CC1 [Compound 8]	> 100 µM	1 ± 1 °C	0 ± 1 °C	-2 ± 1 °C	> 100 µM	1 ± 1 °C	> 100 µM	52 ± 7 µM	-2 ± 1 °C	–	–	–	–	–	–	–	–	–	–
CN1CCN(CCCNC(=O)c2ccc(C(=O)c3ccc(C(=O)NCCCN4CCN(C)CC4)c(C(=O)NCCCN4CCN(C)CC4)c3)cc2C(=O)NCCCN2CCN(C)CC2)CC1 [Compound 10]	> 100 µM	-2 ± 1 °C	0 ± 1 °C	-1 ± 1 °C	> 100 µM	-2 ± 1 °C	> 100 µM	55 ± 3 µM	1 ± 2 °C	–	–	–	–	–	–	–	–	–	–
COc1cccc2c1C(=O)c1c(O)c3c(c(O)c1C2=O)C[C@@](O)(C(=O)CO)C[C@@H]3O[C@H]1C[C@H](N)[C@H](O)[C@H](C)O1 [Doxorubicin, reference compound]	–	–	–	–	0.4 ± 0.05 µM	–	–	–	–	0 ± 1 °C	2 ± 1 °C	8 ± 1 °C	10 ± 1 °C	5 ± 1 °C	–	–	–	–	–
CCCCCCCCCCCCCCCCOP(=O)([O-])OCC[N+](C)(C)C [Miltefosine, reference compound]	5.8 ± 0.01 µM	–	–	–	–	–	–	–	–	–	–	–	–	–	–	–	–	–	–
O=C1c2ccc3c4ccc5c6c(ccc(c7ccc(c2c37)C(=O)N1CCN1CCCCC1)c64)C(=O)N(CCN1CCCCC1)C5=O [PIPER, reference compound]	–	22 ± 1 °C	–	26 ± 1 °C	–	> 40 °C	–	–	38 ± 7 °C	–	0 ± 1 °C	23 ± 1 °C	33 ± 1 °C	21 ± 4 °C	17±2 °C	1±1 °C	21±2 °C	37±2 °C	33±1 °C
Cc1ccc(C(=O)Nc2ccc(S(=O)(=O)O)c3cc(S(=O)(=O)O)cc(S(=O)(=O)O)c23)cc1NC(=O)c1cccc(NC(=O)Nc2cccc(C(=O)Nc3cc(C(=O)Nc4ccc(S(=O)(=O)O)c5cc(S(=O)(=O)O)cc(S(=O)(=O)O)c45)ccc3C)c2)c1 [Suramin, reference compound]	–	–	–	–	–	–	–	0.044 ± 0.006 µM	–	–	–	–	–	–	–	–	–	–	–
C[n+]1ccc(-c2c3nc(c(-c4cc[n+](C)cc4)c4ccc([nH]4)c(-c4cc[n+](C)cc4)c4ccc([nH]4)c(-c4cc[n+](C)cc4)c4nc2C=C4)C=C3)cc1 [TMPyP4, reference compound]	–	–	–	–	–	–	–	–	–	31 ± 2 °C	9 ± 1 °C	34 ± 1 °C	33 ± 1 °C	32 ± 2 °C	–	–	–	–	–
